Reference: ChEMBL document CHEMBL1150999, “Synthesis and biological activities of new conformationally fixed analogues of ()-indolactam-V, the core structure of tumor-promoting teleocidins” (1995)

How the values were obtained:
Assay type in all cases: functional
Human gammaherpesvirus 4 [1] = experiment: In vitro ability of compound to induce Epstein-Barr virus early antigen (EBV-EA) activity at 10 e-6 M concentration
Human gammaherpesvirus 4 [2] = experiment: In vitro ability of compound to induce Epstein-Barr virus early antigen (EBV-EA) activity at 10 e-5 M concentration
Human gammaherpesvirus 4 [3] = experiment: In vitro ability of compound to induce Epstein-Barr virus early antigen (EBV-EA) activity at 10 e-7 M concentration

Row | Compound | Activity (Human gammaherpesvirus 4 [1]) [%] | Activity (Human gammaherpesvirus 4 [2]) [%] | Activity (Human gammaherpesvirus 4 [3]) [%]
1 | Cc1cc2ccc3[nH]cc4c3c2n1[C@@H](C(C)C)C(=O)N[C@H](CO)C4 | 34 | 36.1 | 12.7
2 | Cc1ccc2[nH]cc3c2c1N(C)[C@@H](C(C)C)C(=O)N[C@H](CO)C3 | 1.4 | 9.4 | 0.3
3 | CC(C)[C@H]1C(=O)N[C@H](CO)Cc2c[nH]c3ccc4c(c23)N1[C@H](C)C4 | 14.1 | 16 | 1.2
4 | CC(C)[C@H]1C(=O)N[C@H](CO)Cc2c[nH]c3cccc(c23)N1C [INDOLACTUM] | 19 | 35 | 7.7
5 | CC(C)[C@H]1C(=O)N[C@H](CO)Cc2c[nH]c3ccc4c(c23)N1[C@@H](C)C4 | 0.8 | 17.8 | 0.2
